Measurements as given in ChEMBL document CHEMBL5104126, “Discovery of 2,3-dihydro-1H-pyrrolo[3,4-b]quinolin-1-one derivatives as possible antileishmanial agents” (RSC Med Chem, 2022).
Values after ≈ are worked out from the molar mass of the structure shown. Active and inactive are the calls of the source. No cut-off for these calls is given here.

What was measured:
Leishmania mexicana = test: Antileishmanial activity against Leishmania mexicana 227 assessed as inhibition of parasite viability; format: functional, organism-based
Leishmania donovani [1] = test: Antileishmanial activity against Leishmania donovani MHOM/IN/80/Dd8 amastigotes harboring luciferase gene infected in mouse J774 cells assessed as inhibition of parasite viability incubated for 72 hrs by Steady-Glo reagent based luciferase assay relative to control; format: functional, organism-based; settings: MHOM/IN/80/Dd8, J774, 72 h
Leishmania donovani [2] = test: Antileishmanial activity against Leishmania donovani MHOM/IN/80/Dd8 promastigotes harboring luciferase gene infected in mouse J774 cells assessed as inhibition of parasite viability incubated for 72 hrs by Steady-Glo reagent based luciferase assay relative to control; format: functional, organism-based; settings: MHOM/IN/80/Dd8, J774, 72 h
[3] = Cytotoxicity against mouse macrophage J774 cells assessed as inhibition of cell viability incubated for 72 hrs by MTT assay; format: toxicity, cell-based
[4] = Cytotoxicity against human HepG2 cells assessed as inhibition of cell viability incubated for 72 hrs by MTT assay; format: toxicity, cell-based
[5] = Selectivity index, ratio of CC50 for cytotoxicity against mouse macrophage J774 cells to IC50 for antileishmanial activity against Leishmania donovani MHOM/IN/80/Dd8 amastigotes harboring luciferase gene infected in mouse J774 cells; format: toxicity, cell-based; settings: read-out: Ratio CC50/IC50
[6] = Selectivity index, ratio of CC50 for cytotoxicity against human HepG2 cells to IC50 for antileishmanial activity against Leishmania donovani MHOM/IN/80/Dd8 amastigotes harboring luciferase gene infected in mouse J774 cells; format: toxicity, cell-based; settings: read-out: Ratio CC50/IC50
Leishmania donovani [7] = test: Antileishmanial activity against Leishmania donovani MHOM/IN/80/Dd8 promastigotes infected in Balb/c mouse assessed as inhibition organ parasite burden in liver at 25 mg/kg, ip for 7 days by Giemsa staining based microscopy; format: functional; settings: MHOM/IN/80/Dd8, 168 h, time 7 day
Leishmania donovani [8] = test: Antileishmanial activity against Leishmania donovani MHOM/IN/80/Dd8 promastigotes infected in Balb/c mouse assessed as inhibition organ parasite burden in spleen at 25 mg/kg, ip for 7 days by Giemsa staining based microscopy; format: functional; settings: MHOM/IN/80/Dd8, 168 h, time 7 day
J774 [9] = test: Cytotoxicity against mouse macrophage J774 cells assessed as reduction in cell viability at 50 to 100 uM incubated for 72 hrs by MTT assay; format: toxicity, cell-based; settings: j774, 72 h, dose 50-100 µM
J774 [10] = test: Cytotoxicity against mouse macrophage J774 cells assessed as reduction in cell viability at 6.25 to 25 uM incubated for 72 hrs by MTT assay; format: toxicity, cell-based; settings: j774, 72 h, dose 6.25-25 µM
Leishmania donovani [11] = test: Antileishmanial activity against Leishmania donovani MHOM/IN/80/Dd8 promastigotes harboring luciferase gene infected in mouse J774 cells assessed as inhibition of parasite viability at 25 uM incubated for 72 hrs by Steady-Glo reagent based luciferase assay relative to control; format: functional; settings: MHOM/IN/80/Dd8, J774
Leishmania donovani [12] = test: Antileishmanial activity against Leishmania donovani MHOM/IN/80/Dd8 amastigotes harboring luciferase gene infected in mouse J774 cells assessed as inhibition of parasite viability at 25 uM incubated for 72 hrs by Steady-Glo reagent based luciferase assay relative to control; format: functional; settings: MHOM/IN/80/Dd8, J774
Leishmania donovani [13] = test: Antileishmanial activity against Leishmania donovani MHOM/IN/80/Dd8 promastigotes harboring luciferase gene infected in mouse J774 cells assessed as inhibition of parasite viability at 50 uM incubated for 72 hrs by Steady-Glo reagent based luciferase assay relative to control; format: functional; settings: MHOM/IN/80/Dd8, J774
[14] = Stability of compound in SGF assessed as parent compound remaining at 10 ug/ml incubated for 2 hrs by UPLC analysis; format: ADME; settings: at 10 µg/mL, read-out: Stability
[15] = Stability of compound in SIF assessed as parent compound remaining at 10 ug/ml incubated for 2 hrs by UPLC analysis; format: ADME; settings: at 10 µg/mL, read-out: Stability
[16] = Stability of compound in mouse plasma assessed as parent compound remaining at 10 ug/ml incubated for 2 hrs by UPLC analysis; format: ADME, cell-free; settings: at 10 µg/mL, read-out: Stability
[17] = Metabolic stability in mouse liver microsomes assessed as parent compound remaining at 10 ug/ml incubated for 1 hrs in presence of NADPH by UPLC analysis; format: ADME, Microsome; settings: at 10 µg/mL, read-out: Stability
[18] = Metabolic stability in mouse liver microsomes assessed as elimination rate constant at 10 ug/ml incubated for 1 hrs in presence of NADPH by UPLC analysis; format: ADME, Microsome; settings: dose 10 µg/ml
[19] = Metabolic stability in mouse liver microsomes assessed as half life at 10 ug/ml incubated for 1 hrs in presence of NADPH by UPLC analysis; format: ADME, Microsome; settings: dose 10 µg/ml
[20] = Metabolic stability in mouse liver microsomes assessed as intrinsic clearance at 10 ug/ml measured per mg protein incubated for 1 hrs in presence of NADPH by UPLC analysis; format: ADME, Microsome; settings: dose 10 µg/ml, read-out: CLH
[21] = Aqueous solubility of the compound incubated for 24 hrs by shake flask method; format: physicochemical; settings: water
[22] = Octanol/water partition coefficient, logP of the compound incubated for 24 hrs by shake flask method; format: physicochemical
Leishmania donovani [23] = test: Antileishmanial activity against Leishmania donovani MHOM/IN/80/Dd8 promastigotes infected in Balb/c mouse assessed as inhibition organ parasite burden in liver at 6.25 mg/kg, ip for 7 days by Giemsa staining based microscopy; format: functional; settings: MHOM/IN/80/Dd8, 168 h, time 7 day
Leishmania donovani [24] = test: Antileishmanial activity against Leishmania donovani MHOM/IN/80/Dd8 promastigotes infected in Balb/c mouse assessed as inhibition organ parasite burden in spleen at 6.25 mg/kg, ip for 7 days by Giemsa staining based microscopy; format: functional; settings: MHOM/IN/80/Dd8, 168 h, time 7 day
Leishmania donovani [25] = test: Antileishmanial activity against Leishmania donovani MHOM/IN/80/Dd8 promastigotes infected in Balb/c mouse assessed as inhibition organ parasite burden in liver at 12.5 mg/kg, ip for 7 days by Giemsa staining based microscopy; format: functional; settings: MHOM/IN/80/Dd8, 168 h, time 7 day
Leishmania donovani [26] = test: Antileishmanial activity against Leishmania donovani MHOM/IN/80/Dd8 promastigotes infected in Balb/c mouse assessed as inhibition organ parasite burden in spleen at 12.5 mg/kg, ip for 7 days by Giemsa staining based microscopy; format: functional; settings: MHOM/IN/80/Dd8, 168 h, time 7 day
Leishmania donovani [27] = test: Antileishmanial activity against Leishmania donovani MHOM/IN/80/Dd8 promastigotes infected in Balb/c mouse assessed as inhibition organ parasite burden in liver at 50 mg/kg, ip for 7 days by Giemsa staining based microscopy; format: functional; settings: MHOM/IN/80/Dd8, 168 h, time 7 day
Leishmania donovani [28] = test: Antileishmanial activity against Leishmania donovani MHOM/IN/80/Dd8 promastigotes infected in Balb/c mouse assessed as inhibition organ parasite burden in spleen at 50 mg/kg, ip for 7 days by Giemsa staining based microscopy; format: functional; settings: MHOM/IN/80/Dd8, 168 h, time 7 day
Leishmania donovani [29] = test: Induction of mitochondrial membrane potential loss in Leishmania donovani MHOM/IN/80/Dd8 promastigotes assessed as apoptotic cells at 50 uM incubated for 24 hrs by JC-1 dye staining based flow cytometry; format: functional
Leishmania donovani [30] = test: Induction of mitochondrial membrane potential loss in Leishmania donovani MHOM/IN/80/Dd8 promastigotes assessed as apoptotic cells at 50 uM incubated for 48 hrs by JC-1 dye staining based flow cytometry; format: functional
Leishmania donovani [31] = test: Induction of apoptosis in Leishmania donovani MHOM/IN/80/Dd8 promastigotes assessed as increase in cytochrome c level in cytosol at 50 uM incubated upto 48 hrs by immunoblot analysis; format: functional, organism-based; settings: TDE = time-dependent effect
Leishmania donovani [32] = test: Induction of apoptosis in Leishmania donovani MHOM/IN/80/Dd8 promastigotes assessed as decrease in cytochrome c level in mitochondria at 50 uM incubated upto 48 hrs by immunoblot analysis; format: functional, organism-based; settings: TDE = time-dependent effect
Leishmania donovani [33] = test: Induction of apoptosis in Leishmania donovani MHOM/IN/80/Dd8 promastigotes assessed as ladder like DNA at 50 uM incubated for 72 hrs by agarose gel electrophoresis; format: functional, organism-based
Leishmania donovani [34] = test: Induction of apoptosis in Leishmania donovani MHOM/IN/80/Dd8 promastigotes assessed as breakdown of nuclear DNA at 50 uM incubated for 72 hrs by agarose gel electrophoresis; format: functional, organism-based
Leishmania donovani [35] = test: Induction of cell cycle arrest in Leishmania donovani MHOM/IN/80/Dd8 promastigotes assessed as increase in subG0/G1 phase at 50 uM incubated for 72 hrs by PI staining based flow cytometry; format: functional

CCCCCCOc1c(OC)cc(NC(C)CCCN)c2nccc(C)c12 (configuration not stated) [WR-242511]
IC50 (Leishmania mexicana): 2.5 µM

CCCCCCCCCCCCCCCCOP(=O)([O-])OCC[N+](C)(C)C [MILTEFOSINE]
IC50 (Leishmania donovani [1]): 6.86 µM
IC50 (Leishmania donovani [2]): 6.12 µM
CC50 at 72 h [3]: 72.4 µM
CC50 at 72 h [4]: 78.6 µM
selectivity ratio [5]: 11.8
selectivity ratio [6]: 12.8
inhibition in vivo at 25 mg/kg (Leishmania donovani [7]): 97.4%
inhibition in vivo at 25 mg/kg (Leishmania donovani [8]): 98.9%

COc1ccc2nc3c(c(-c4ccccc4)c2c1)C(=O)N(C(C(=O)NC(C)(C)C)c1ccc(Cl)cc1)C3 (configuration not stated)
Activity (J774 [9]): >= 30%
Activity (J774 [10]): Non-Toxic
inhibition at 25 µM (Leishmania donovani [11]): 40%
inhibition at 25 µM (Leishmania donovani [12]): 45%
IC50 (Leishmania donovani [1]): 10.5 µM

COc1ccc(-c2c3c(nc4ccc(OC)cc24)CN(C(C)(C)C(=O)NC(C)(C)C)C3=O)cc1
Activity (J774 [9]): >= 30%
Activity (J774 [10]): Non-Toxic
inhibition at 25 µM (Leishmania donovani [11]): 85.4%
inhibition at 25 µM (Leishmania donovani [12]): 85.5%
IC50 (Leishmania donovani [1]): 7.36 µM
inhibition at 50 µM (Leishmania donovani [13]): 86.5%
IC50 (Leishmania donovani [2]): 8.36 µM
CC50 at 72 h [3]: 65.1 µM
CC50 at 72 h [4]: 63.7 µM
selectivity ratio [5]: 7.79
selectivity ratio [6]: 7.62
remaining at 2 h, 10 ug/ml [14]: 87.5%
remaining at 2 h, 10 ug/ml [15]: 85.5%
remaining at 2 h, 10 ug/ml [16]: 88.7%
remaining at 1 h, 10 ug/ml [17]: 86.8%
k el at 1 h, 10 ug/ml [18]: 3.89e-05 s⁻¹
half-life at 10 ug/ml [19]: 5.07 h
microsomal CLint at 10 ug/ml [20]: 4.61 µL/min/mg
solubility thermodynamic at 24 h [21]: 157 µg/mL (≈ 340 µM)
logP at 24 h [22]: 2.7
inhibition in vivo at 6.25 mg/kg (Leishmania donovani [23]): 45.1%
inhibition in vivo at 6.25 mg/kg (Leishmania donovani [24]): 42.4%
inhibition in vivo at 12.5 mg/kg (Leishmania donovani [25]): 56.2%
inhibition in vivo at 12.5 mg/kg (Leishmania donovani [26]): 61.1%
inhibition in vivo at 50 mg/kg (Leishmania donovani [27]): 57.8%
inhibition in vivo at 50 mg/kg (Leishmania donovani [28]): 63.4%
Activity (Leishmania donovani [29]): 36%
Activity (Leishmania donovani [30]): 69.1%
Activity (Leishmania donovani [31]): Tde
Activity (Leishmania donovani [32]): Tde
Activity (Leishmania donovani [33]): Active
Activity (Leishmania donovani [34]): Active
Activity (Leishmania donovani [35]): 58.4%

COc1ccc2nc3c(c(-c4ccccc4)c2c1)C(=O)N(C(C(N)=O)c1ccc(F)cc1)C3 (configuration not stated)
Activity (J774 [9]): >= 30%
Activity (J774 [10]): Non-Toxic
inhibition at 25 µM (Leishmania donovani [11]): 61%
inhibition at 25 µM (Leishmania donovani [12]): 46%
IC50 (Leishmania donovani [1]): 8.75 µM
